pEC50: −log10 of the molar value.
What was measured:
[1] = target: T1, Cloned human M1 receptor (CHRM1) stably expressed in HEK293 cells (Homo sapiens, UniProt P11229); experiment: CHRM1 Ca++ Flux Assay (agonist mode, FDSS 7000EX); assay type: cell-based; details: for M1 FDSS PA: Percent Activity; for pEC50: geometric mean if tested more than once
T1 construct: expressed in transfected cells; host or cells: HEK293
T1 sequence (P11229 1-460): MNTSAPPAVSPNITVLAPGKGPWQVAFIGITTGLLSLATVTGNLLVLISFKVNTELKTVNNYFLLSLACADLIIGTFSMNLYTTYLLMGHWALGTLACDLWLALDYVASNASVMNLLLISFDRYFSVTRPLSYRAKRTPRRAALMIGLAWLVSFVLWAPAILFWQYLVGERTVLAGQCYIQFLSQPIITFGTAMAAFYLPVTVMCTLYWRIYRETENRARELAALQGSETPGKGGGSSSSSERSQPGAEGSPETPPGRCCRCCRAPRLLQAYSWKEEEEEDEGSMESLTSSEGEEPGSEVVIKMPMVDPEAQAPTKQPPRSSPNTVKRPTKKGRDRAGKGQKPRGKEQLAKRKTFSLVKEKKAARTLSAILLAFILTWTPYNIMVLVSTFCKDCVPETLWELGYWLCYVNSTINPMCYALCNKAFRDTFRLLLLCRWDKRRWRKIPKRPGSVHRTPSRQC
Procedure, shortened: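 Compounds tested as agonists at 11 concentrations in triplicate, with calcium traces captured over 3 minutes. Cells were HEK293 with stable human CHRM1 expression, plated overnight at 25K/well and loaded with calcium dye. Responses normalized to carbachol EC100 and fitted by four-parameter nonlinear regression.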

[2] = target: T2, human cloned CHRM4 receptor (M4_CHO cells) (Homo sapiens, UniProt P08173); experiment: CHRM4 Ca++ Flux Assay (agonist mode, FDSS 7000EX); assay type: cell-based; details: for M4 FDSS PA: Percent Activity; for pEC50: geometric mean if tested more than once, read-out: M4 FDSS EC50
T2 construct: expressed in transfected cells; host or cells: CHO-K1
T2 sequence (P08173 1-479): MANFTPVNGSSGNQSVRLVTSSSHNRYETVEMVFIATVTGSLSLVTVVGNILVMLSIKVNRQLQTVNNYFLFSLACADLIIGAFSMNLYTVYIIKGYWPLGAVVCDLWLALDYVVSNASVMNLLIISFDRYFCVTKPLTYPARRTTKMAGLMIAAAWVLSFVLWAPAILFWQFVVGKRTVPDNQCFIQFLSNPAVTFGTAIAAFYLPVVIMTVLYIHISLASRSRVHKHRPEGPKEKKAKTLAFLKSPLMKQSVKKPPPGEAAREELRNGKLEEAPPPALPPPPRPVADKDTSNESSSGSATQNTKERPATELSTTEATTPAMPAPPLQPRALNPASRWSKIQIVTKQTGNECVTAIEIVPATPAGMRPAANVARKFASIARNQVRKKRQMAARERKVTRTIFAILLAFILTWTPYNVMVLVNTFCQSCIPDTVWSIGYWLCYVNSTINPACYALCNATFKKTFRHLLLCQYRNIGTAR
Procedure, shortened: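 M4_CHO cells loaded with a Ca++ dye for at least 1 h were held 60 min at room temperature in HEPES/probenecid buffer with 20 μM ATP. Ca++ flux after an 11-point compound dose, in triplicate and agonist mode, was recorded over 3 min. Four-parameter fits gave curves, with activity expressed relative to the Carbachol EC100.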

Row | M1 FDSS PA [1] [%] | pEC50 [1] | M4 FDSS PA [2] [%] | pEC50 [2] | SMILES
1 | 55 | 5.85 | 50 | 7.60 | Fc1ccc(C2CCOCC2)c(C2CCN([C@@H]3CCC4(C3)CN(c3cncnc3)C4)CC2)c1 (single isomer, unassigned) [Example 10D, (R)-6-(4-(5-fluoro-2-(tetrahydro-2H-pyran-4-yl)phenyl)piperidin-1-yl)-2-(pyrimidin-5-yl)-2-azaspiro[3.4]octane or (S)-6-(4-(5-fluoro-2-(tetrahydro-2H-pyran-4-yl)phenyl)piperidin-1-yl)-2-(pyrimidin-5-yl)-2-azaspiro[3.4]octane]
2 | 4 | 5.40 | 59 | 7.57 | Fc1ccc(OC2CC3(COC3)C2)c(C2CCN([C@@H]3CCC4(C3)CN(c3cncnc3)C4)CC2)c1 (single isomer, unassigned) [Example 10E, (R)-6-(4-(2-((2-oxaspiro[3.3]heptan-6-yl)oxy)-5-fluorophenyl)piperidin-1-yl)-2-(pyrimidin-5-yl)-2-azaspiro[3.4]octane or (S)-6-(4-(2-((2-oxaspiro[3.3]heptan-6-yl)oxy)-5-fluorophenyl)piperidin-1-yl)-2-(pyrimidin-5-yl)-2-azaspiro[3.4]octane]
3 | 0 | < 4.60 | 71 | 8.33 | Fc1ccc(OC2CC3(COC3)C2)c(C2CCN([C@@H]3CCC4(C3)CN(c3cncnc3)C4)CC2)c1 (single isomer, unassigned) [Example 10F, (R)-6-(4-(2-((2-oxaspiro[3.3]heptan-6-yl)oxy)-5-fluorophenyl)piperidin-1-yl)-2-(pyrimidin-5-yl)-2-azaspiro[3.4]octane or (S)-6-(4-(2-((2-oxaspiro[3.3]heptan-6-yl)oxy)-5-fluorophenyl)piperidin-1-yl)-2-(pyrimidin-5-yl)-2-azaspiro[3.4]octane]
4 | 64 | 7.20 | 56 | 8.30 | Fc1ccc(OC2CCOCC2)c(C2CCN([C@@H]3CCC4(C3)CN(c3cncnc3)C4)CC2)c1 (single isomer, unassigned) [Example 10G, (R)-6-(4-(5-fluoro-2-((tetrahydro-2H-pyran-4-yl)oxy)phenyl)piperidin-1-yl)-2-(pyrimidin-5-yl)-2-azaspiro[3.4]octane or (S)-6-(4-(5-fluoro-2-((tetrahydro-2H-pyran-4-yl)oxy)phenyl)piperidin-1-yl)-2-(pyrimidin-5-yl)-2-azaspiro[3.4]octane]
5 | 36 | 5.86 | 51 | 7.72 | Fc1ccc(OC2CCOCC2)c(C2CCN([C@@H]3CCC4(C3)CN(c3cncnc3)C4)CC2)c1 (single isomer, unassigned) [Example 10H, (R)-6-(4-(5-fluoro-2-((tetrahydro-2H-pyran-4-yl)oxy)phenyl)piperidin-1-yl)-2-(pyrimidin-5-yl)-2-azaspiro[3.4]octane or (S)-6-(4-(5-fluoro-2-((tetrahydro-2H-pyran-4-yl)oxy)phenyl)piperidin-1-yl)-2-(pyrimidin-5-yl)-2-azaspiro[3.4]octane]
6 | 0 | < 4.60 | 17 | 5.97 | COc1ccccc1C1CCN([C@H]2CCC3(C2)CN(c2ncco2)C3)CC1 (single isomer, unassigned) [Example 10I, S)-2-(6-(4-(2-methoxyphenyl)piperidin-1-yl)-2-azaspiro[3.4]octan-2-yl)oxazole or (R)-2-(6-(4-(2-methoxyphenyl)piperidin-1-yl)-2-azaspiro[3.4]octan-2-yl)oxazole]
7 | 66 | 7.70 | 67 | 9.00 | COc1ccccc1C1CCN([C@H]2CCC3(C2)CN(c2ncco2)C3)CC1 (single isomer, unassigned) [Example 10J, (S)-2-(6-(4-(2-methoxyphenyl)piperidin-1-yl)-2-azaspiro[3.4]octan-2-yl)oxazole or (R)-2-(6-(4-(2-methoxyphenyl)piperidin-1-yl)-2-azaspiro[3.4]octan-2-yl)oxazole]
8 | 65 | 7.03 | 65 | 8.15 | FC(F)(F)Oc1ccccc1C1CCN([C@@H]2CCC3(C2)CN(c2ncco2)C3)CC1 (single isomer, unassigned) [Example 10K, (R)-2-(6-(4-(2-(trifluoromethoxy)phenyl)piperidin-1-yl)-2-azaspiro[3.4]octan-2-yl)oxazole or (S)-2-(6-(4-(2-(trifluoromethoxy)phenyl)piperidin-1-yl)-2-azaspiro[3.4]octan-2-yl)oxazole]
9 | 50 | 6.13 | 57 | 7.01 | FC(F)(F)Oc1ccccc1C1CCN([C@@H]2CCC3(C2)CN(c2ncco2)C3)CC1 (single isomer, unassigned) [Example 10L, (R)-2-(6-(4-(2-(trifluoromethoxy)phenyl)piperidin-1-yl)-2-azaspiro[3.4]octan-2-yl)oxazole or (S)-2-(6-(4-(2-(trifluoromethoxy)phenyl)piperidin-1-yl)-2-azaspiro[3.4]octan-2-yl)oxazole]
10 | 77 | 7.31 | 67 | 7.96 | FC(F)(F)Oc1ccccc1C1CCN([C@@H]2CCC3(C2)CN(c2nncs2)C3)CC1 (single isomer, unassigned) [Example 10M, (R)-2-(6-(4-(2-(trifluoromethoxy)phenyl)piperidin-1-yl)-2-azaspiro[3.4]octan-2-yl)-1,3,4-thiadiazole or (S)-2-(6-(4-(2-(trifluoromethoxy)phenyl)piperidin-1-yl)-2-azaspiro[3.4]octan-2-yl)-1,3,4-thiadiazole]
11 | 0 | < 4.60 | 1 | < 4.60 | FC(F)(F)Oc1ccccc1C1CCN([C@@H]2CCC3(C2)CN(c2nncs2)C3)CC1 (single isomer, unassigned) [Example 10N, (R)-2-(6-(4-(2-(trifluoromethoxy)phenyl)piperidin-1-yl)-2-azaspiro[3.4]octan-2-yl)-1,3,4-thiadiazole or (S)-2-(6-(4-(2-(trifluoromethoxy)phenyl)piperidin-1-yl)-2-azaspiro[3.4]octan-2-yl)-1,3,4-thiadiazole]
12 | 83 | 7.36 | 67 | 9.00 | FC(F)Oc1ccccc1C1CCN([C@@H]2CCC3(C2)CN(c2nncs2)C3)CC1 (single isomer, unassigned) [Example 10O, (R)-2-(6-(4-(2-(difluoromethoxy)phenyl)piperidin-1-yl)-2-azaspiro[3.4]octan-2-yl)-1,3,4-thiadiazole or (S)-2-(6-(4-(2-(difluoromethoxy)phenyl)piperidin-1-yl)-2-azaspiro[3.4]octan-2-yl)-1,3,4-thiadiazole]
13 | 66 | 6.77 | 71 | 8.10 | COc1ccccc1C1CCN([C@@H]2CCC3(C2)CN(c2ncns2)C3)CC1 (single isomer, unassigned) [Example 10Q, (R)-5-(6-(4-(2-methoxyphenyl)piperidin-1-yl)-2-azaspiro[3.4]octan-2-yl)-1,2,4-thiadiazole or (S)-5-(6-(4-(2-methoxyphenyl)piperidin-1-yl)-2-azaspiro[3.4]octan-2-yl)-1,2,4-thiadiazole]
14 | 0 | < 4.60 | 36 | 6.91 | COc1ccccc1C1CCN([C@@H]2CCC3(C2)CN(c2ncns2)C3)CC1 (single isomer, unassigned) [Example 10R, (R)-5-(6-(4-(2-methoxyphenyl)piperidin-1-yl)-2-azaspiro[3.4]octan-2-yl)-1,2,4-thiadiazole or (S)-5-(6-(4-(2-methoxyphenyl)piperidin-1-yl)-2-azaspiro[3.4]octan-2-yl)-1,2,4-thiadiazole]
